This is an account of results in patent publication US20080132505A1 (Glaxo Group Limited, priority 2004, published 2008).

This test concerns the target human cannabinoid CB2 receptor (Homo sapiens, UniProt P34972). The test can be described thus: Cannabinoid CB2 receptor agonist activity (yeast reporter assay, FDGlu fluorescence). The test is classed as cell-based. To be noted: for EC50: EC50 value at the cloned human cannabinoid CB2 receptor; for Emax: read-out: efficacy value (Emax relative to HU210) at the cloned human cannabinoid CB2 receptor. How it is done: Determination of Cannabinoid CB2 Receptor Agonist Activity
The cannabinoid CB2 receptor agonist activity of the compounds of formula (I)-(IV) was determined in accordance with the following experimental method.
Yeast (Saccharomyces cerevisiae) cells expressing the human cannabinoid CB2 receptor were generated by integration of an expression cassette into the ura3 chromosomal locus of yeast strain MMY23. This cassette consisted of DNA sequence encoding the human CB2 receptor flanked by the yeast GPD promoter to the 5′ end of CB2 and a yeast transcriptional terminator sequence to the 3′ end of CB2. MMY23 expresses a yeast/mammalian chimeric G-protein alpha subunit in which the C-terminal 5 amino acids of Gpa1 are replaced with the C-terminal 5 amino acids of human Gαi3 (as described in Brown et al. (2000), Yeast 16:11-22). Cells were grown at 30° C. in liquid Synthetic Complete (SC) yeast media (Guthrie and Fink (1991), Methods in Enzymology, Vol. 194) lacking uracil, tryptophan, adenine and leucine to late logarithmic phase (approximately 6 OD600/ml).
Agonists were prepared as 10 mM stocks in DMSO. […] Agonist solutions in DMSO (1% final assay volume) were transferred into black, clear bottom, microtitre plates from NUNC (96- or 384-well). Cells were suspended at a density of 0.2 OD600/ml in SC media lacking histidine, uracil, tryptophan, adenine and leucine and supplemented with 10 mM 3-aminotriazole, 0.1M sodium phosphate pH 7.0, and […] fluorescein di-β-D-glucopyranoside (FDGlu). This mixture (50 ul per well for 384-well plates, 200 ul per well for 96-well plates) was added to agonist in the assay plates (Multidrop 384, Labsystems). After incubation at 30° C. for 24 hours, fluorescence resulting from degradation of FDGlu to fluorescein due to exoglucanase, an endogenous yeast enzyme produced during agonist-stimulated cell growth, was determined using a Spectrofluor microtitre plate reader (Tecan; excitation wavelength: 485 nm; emission wavelength: 535 nm). Fluorescence was plotted against compound concentration and iteratively curve fitted using a four parameter fit to generate a concentration effect value. Efficacy (Emax) was calculated from the equation
where Max[compound X] and Min[compound X] are the fitted maximum and minimum respectively from the concentration effect curve for compound X, and Max[HU210] and Min[HU210] are the fitted maximum and minimum respectively from the concentration effect curve for (6aR,10aR)-3-(1,1′-Dimethylheptyl)-6a,7,10,10a-tetrahydro-1-hydroxy-6,6-dimethyl-6H-dibenzo[b,d]pyran-9-methanol (HU210; available from Tocris). Equieffective molar ratio (EMR) values were calculated from the equation
Where EC50 [compound X] is the EC50 of compound X and EC50 [HU210] is the EC50 of HU210.
Background: A reporter such as luciferase makes a cellular process visible.

human cannabinoid CB2 receptor, sequence (P34972 whole entry): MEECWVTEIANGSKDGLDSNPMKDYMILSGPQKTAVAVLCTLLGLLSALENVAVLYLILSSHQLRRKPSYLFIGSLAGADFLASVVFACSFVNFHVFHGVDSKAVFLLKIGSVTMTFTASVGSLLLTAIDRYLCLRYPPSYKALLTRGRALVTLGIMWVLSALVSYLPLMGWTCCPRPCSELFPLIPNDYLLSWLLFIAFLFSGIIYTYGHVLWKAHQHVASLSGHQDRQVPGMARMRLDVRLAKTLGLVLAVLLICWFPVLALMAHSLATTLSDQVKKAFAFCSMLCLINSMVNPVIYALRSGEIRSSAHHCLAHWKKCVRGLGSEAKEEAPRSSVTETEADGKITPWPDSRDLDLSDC

Regarding `O=C(NCC1CCCCC1)c1cnc(Nc2cccc(Cl)c2Cl)nc1C(F)(F)F` [Example 15, 2-(2,3-Dichlorophenylamino)-4-trifluoromethylpyrimidine-5-carboxylic acid cyclohexylmethyl-amide], the EC50 was in the range of 20 to 300 nM and the Emax is above 50%.
The corresponding values for `N#Cc1cc(C#N)cc(Nc2ncc(C(=O)NCC3CCCCC3)c(C(F)(F)F)n2)c1` [Example 89, 2-(3,5-Dicyano-phenylamino)-4-trifluoromethyl-pyrimidine-5-carboxylic acid cyclohexylmethyl-amide] are 300 to 1000 nM and above 50%.
Turning to `O=C(NCC1CCCCC1)c1cnc(Nc2cccc(C(F)(F)F)c2F)nc1C(F)(F)F` [Example 243, 2-(2-Fluoro-3-trifluoromethyl-phenylamino)-4-trifluoromethyl-pyrimidine-5-carboxylic acid cyclohexylmethyl-amide], the 50% effective concentration (EC50) lay within 20 to 300 nM and the maximal response (Emax) was above 50%.
Regarding `N#Cc1cccc(Nc2ncc(C(=O)NCC3CCCC3)c(C(F)(F)F)n2)c1` [Example 173, 2-(3-Cyanophenylamino)-4-trifluoromethyl-pyrimidine-5-carboxylic acid cyclopentylmethyl-amide], the EC50 was 20 to 300 nM and the maximal effect (Emax) was above 50%.
As to `CC(C)c1cc(Nc2ccc(C#N)cc2F)ncc1C(=O)NCC1CCCC1` [Example 751, 6-(4-Cyano-2-fluoro-phenylamino)-N-cyclopentylmethyl-4-isopropyl-nicotinamide], the Emax was above 50%.
As for `O=C(NCC1CCCCC1)c1cnc(Nc2ccc(Br)cc2Cl)nc1C(F)(F)F` [Example 225, 2-(2-Chloro-4-bromo-phenylamino)-4-trifluoromethyl-pyrimidine-5-carboxylic acid cyclohexylmethyl-amide], the half-maximal effective concentration (EC50) was 20 to 300 nM and the Emax is above 50%.
As to `CS(=O)(=O)N1CCN(C(=O)c2cnc(Nc3cccc(Cl)c3)nc2C(F)(F)F)CC1` [Example 79, 1-[2-(3-chlorophenylamino)-4-trifluoromethyl-pyrimidin-5-yl]-1-(4-methanesulfonyl-piperazin-1-yl)-methanone], the concentration for a half-maximal effect (EC50) lay in the range of 300 to 1000 nM and the Emax is above 50%.
On to `N#Cc1ccc(Nc2ncc(C(=O)NCC3CCOCC3)c(C(F)(F)F)n2)cc1` [Example 175, 2-(4-Cyanophenylamino)-4-trifluoromethyl-pyrimidine-5-carboxylic acid (tetrahydropyran-4-ylmethyl)-amide], for which the 50% effective concentration (EC50) was in the range of 20 to 300 nM and the Emax was above 50%.
The like results for `O=C(NC1CCCC1)c1cnc(Nc2ccc(Cl)cc2Cl)nc1C(F)(F)F` [Example 208, 2-(2,4-Dichlorophenylamino)-4-trifluoromethyl-pyrimidine-5-carboxylic acid cyclopentylamide] were, in that order, 20 to 300 nM and above 50%.
On to `O=C(NCC1CCOCC1)c1cnc(Nc2ccc(Br)cc2C(F)(F)F)nc1C(F)(F)F` [Example 254, 2-(2-Trifluoromethyl-4-bromo-phenylamino)-4-trifluoromethyl-pyrimidine-5-carboxylic acid (tetrahydro-pyran-4-ylmethyl)-amide], for which the EC50 was in the range of 20 to 300 nM and the maximal effect (Emax) is above 50%.
Take `O=C(NCC1CC1)c1cnc(Nc2cccc(Cl)c2)nc1C(F)(F)F` [Example 84, 2-(3-Chloro-phenylamino)-4-trifluoromethyl-pyrimidine-5-carboxylic acid cyclopropylmethyl-amide]: the EC50 lay within 300 to 1000 nM and the Emax is above 50%.
Consider `O=C(NCC1CCCC1)c1cnc(Nc2cccc(Cl)c2)nc1C(F)(F)F` [Example 2, 2-(3-Chlorophenylamino)-4-trifluoromethylpyrimidine-5-carboxylic acid cyclopentylmethyl-amide], for which the EC50 lay within 20 to 300 nM and the maximal effect (Emax) was above 50%.
The corresponding values for `CN(CC1CCCC1)C(=O)c1cnc(Nc2cccc(Cl)c2)nc1C(F)(F)F` [Example 190, 2-(3-Chlorophenylamino)-4-trifluoromethyl-pyrimidine-5-carboxylic acid cyclopentylmethyl-methyl-amide] are 20 to 300 nM and above 50%.
`O=C(NCC1CCCC1)c1cnc(Nc2ccc(Cl)c(Cl)c2)nc1C(F)(F)F` [Example 44, 2-(3,4-Dichlorophenylamino)-4-trifluoromethylpyrimidine-5-carboxylic acid cyclopentylmethyl-amide]: the half-maximal effective concentration (EC50) lay within 20 to 300 nM and the Emax was above 50%.
As for `Cc1ccc(Cl)cc1Nc1ncc(C(=O)NCC2CCCCC2)c(C(F)(F)F)n1` [Example 246, 2-(5-Chloro-2-methylphenylamino)-4-trifluoromethyl-pyrimidine-5-carboxylic acid cyclohexylmethyl-amide], the EC50 is 20 to 300 nM and the Emax was above 50%.
Turning to `O=C(NCC1CCOCC1)c1ccc(Nc2cccc(Cl)c2)nc1C(F)(F)F` [Example 662, 6-(3-Chloro-phenylamino)-N-(tetrahydro-pyran-4-ylmethyl)-2-trifluoromethyl-nicotinamide], the Emax was above 50%.
Consider `O=C(NCC1CCOCC1)c1cnc(Nc2c(Cl)cccc2Cl)nc1C(F)(F)F` [Example 55, 2-(2,6-Dichlorophenylamino)-4-trifluoromethyl-pyrimidine-5-carboxylic acid (tetrahydro-pyran-4-ylmethyl)-amide], for which the concentration giving a half-maximal response (EC50) was in the range of 20 to 300 nM and the Emax is above 50%.
Turning to `O=C(NCC1CCC1)c1cnc(Nc2ccc(C(F)(F)F)cc2Cl)nc1C(F)(F)F` [Example 102, 2-(2-Chloro-4-trifluoromethylphenylamino)-4-trifluoromethyl-pyrimidine-5-carboxylic acid cyclobutylmethyl-amide], the EC50 lay in the range of 300 to 1000 nM and the maximal effect (Emax) is above 50%.
The molecule `O=C(NCc1ccc(F)cc1)c1cnc(Nc2ccc(Cl)c(Cl)c2)nc1C(F)(F)F` [Example 367, 2-(3,4-Dichloro-phenylamino)-4-trifluoromethyl-pyrimidine-5-carboxylic acid 4-fluoro-benzylamide] registered a half-maximal effective concentration (EC50) of 20 to 300 nM.
Regarding `COc1cc(Nc2ncc(C(=O)NCC3CCCCC3)c(C(F)(F)F)n2)ccc1Cl` [Example 245, 2-(4-Chloro-3-methoxyphenylamino)-4-trifluoromethyl-pyrimidine-5-carboxylic acid cyclohexylmethyl-amide], the EC50 lay in the range of 20 to 300 nM and the maximal effect (Emax) is above 50%.
The like results for `O=C(NCC1CCCC1)c1cnc(Nc2cccc(Br)c2)nc1C(F)(F)F` [Example 39, 2-(3-Bromophenylamino)-4-trifluoromethylpyrimidine-5-carboxylic acid cyclopentylmethyl-amide] were, in that order, 20 to 300 nM and above 50%.
Consider `O=C(NC[C@H]1CCCO1)c1cnc(Nc2cccc(F)c2)nc1C(F)(F)F` [Example 73, 2-(3-Fluoro-phenylamino)-4-trifluoromethyl-pyrimidine-5-carboxylic acid [(R)-1-(tetrahydro-furan-2-yl)methyl]-amide], for which the Emax is above 50%.
`O=C(NCC1CCCCC1)c1cnc(Nc2cccc(Cl)c2F)nc1C(F)(F)F` [Example 167, 2-(3-Chloro-2-fluorophenylamino)-4-trifluoromethyl-pyrimidine-5-carboxylic acid cyclohexylmethyl-amide]: the EC50 fell in the range of 20 to 300 nM and the Emax was above 50%.
In the case of `O=C(NCC1CCC1)c1cnc(Nc2cccc(Cl)c2F)nc1C(F)(F)F` [Example 195, 2-(3-Chloro-2-fluorophenylamino)-4-trifluoromethyl-pyrimidine-5-carboxylic acid cyclobutylmethyl-amide], the EC50 is 20 to 300 nM and the Emax was above 50%.
On to `O=C(NCC1CCOCC1)c1cnc(Nc2cc(Br)cc(C(F)(F)F)c2)nc1C(F)(F)F` [Example 179, 2-(3-Bromo-5-(trifluoromethyl)phenylamino)-4-trifluoromethyl-pyrimidine-5-carboxylic acid (tetrahydropyran-4-ylmethyl)-amide], for which the EC50 lay in the range of 20 to 300 nM and the Emax is above 50%.
For the molecule `N#Cc1cccc(Nc2ncc(C(=O)NCc3ccccc3)c(C(F)(F)F)n2)c1` [Example 362, 2-(3-Cyano-phenylamino)-4-trifluoromethyl-pyrimidine-5-carboxylic acid benzylamide], the EC50 is 20 to 300 nM and the Emax is above 50%.

By EC50 is commonly meant the concentration at which the effect is half-maximal. Low values mean a more potent agent, high ones a less potent agent. A word on the Emax: it is the greatest response seen or fitted, relative to the assay's reference.
